# Experimental data reported in patent EP3932918A1, “EUTECTIC CRYSTAL FORMED BY APIXABAN AND CARBOXYLIC ACID, AND PREPARATION METHOD THEREFOR” (Zhejiang Tianyu Pharmaceutical Co., Ltd., priority 2019, dated 2021).
# Assay: Dissolution rate test of Apixaban/carboxylic acid co-crystal (paddle method, Chinese Pharmacopoeia guidelines; equilibrium solubility in dissolution medium)
# Type: physicochemical
# Conditions: relative to Apixaban; dissolution medium 0.1mol/L hydrochloric acid, 37±0.5°C, paddle method 100rpm, 900ml, 500 mg sample powder
# Description: Test Example 1: Dissolution rate test of Apixaban/carboxylic acid co-crystal
# According to the dissolution rate test guidelines in the current Chinese Pharmacopoeia, a dissolution rate experiment was designed to respectively investigate the dissolution rates of the five Apixaban/carboxylic acid co-crystals prepared by the present invention. The specific scheme is as follows:
# Table 6 Dissolution equipment and parameters
# 0.1mol/L hydrochloric acid solution: 9ml of hydrochloric acid was added into 1000ml of water and stirred well.
# After the dissolution conditions were reached, 500 mg of sample powder were weighed and put into a dissolution cup, rotated, and immediately counted the time, after 1, 2, 3, 4, 6, 8, 10, 12, 14, 16, 18, 20, 22 and 24 hours, sampled with a sampling needle equipped with a 10µm polymeric polyethylene filter membrane, and filtered on-line through a 0.45µm polyvinylidene fluoride (PVDF) filter membrane.
row,dissolution rate (times that of Apixaban),Substance
1,1.44 times,Apixaban/D-malic acid co-crystal [crystal form II]
2,1.4 times,Apixaban/malonic acid co-crystal [crystal form I]
